Values joined by “and” are separate entries in the source; they are usually repeats but may differ in a detail not shown here. Identical values can stand only once. Counter-ions that a name gives are not always drawn.

In data set [1] the test system is rabbit pupil. The data set is described as follows: Rabbit pupil constriction after single eye drop (Test Example 1). The data set is classed as in vivo, New Zealand rabbit. Particulars: rabbits, Test Example 1 solutions. The procedure:
Except for group 5), the eye drop solutions of groups 1) to 12) described above contained an equimolar concentration of pilocarpine. The molar concentration of pilocarpine in the eye drop solution of group 5) was half of the molar concentration of pilocarpine in the solutions of the other 11 groups.
The effects of the eye drop solutions of groups 1) to 12) prepared above on rabbit pupil constriction and irritation were tested separately.
• Species and strain: New Zealand rabbit • Grade: normal • Source: Qinglongshan Animal Breeding Farm, Jiangning District, Nanjing • Production license No.: SCXK (Su) 2016-0008 • Animal age: about 110 days old at the time of administration • Animal body weight: about 2.5-3.5 kg at the time of administration • Animal sex: all male • Feed: rabbit pellet feed • Housing conditions: air-conditioned room, with a temperature of 18-26° C. and a relative humidity of 40%-80%.
• Digital vernier caliper: specification: 0-150 mm; measurement accuracy: 0.01 mm; manufacturer: Guilin Guanglu Measuring Instrument Co., Ltd.
(§1) Each rabbit was subjected to eye drop administration in the left eye (using a pipette), with an administration volume of 100 μL.
• Number of animals: for JQ series compounds, 6 rabbits per compound; for compounds 1, 2 and 4, 5 rabbits per compound. • Administration schedule: single administration. Measurement indicators and time points: • for JQ series compounds, the pupil diameter of the left eye of the rabbits was measured at time points of −0.5 h (i.e., half an hour before administration), 5 min, 10 min, 15 min, 0.5 h, 3 h and 4 h relative to administration, with the measurement repeated 3 times for each rabbit at each time point (measurement time points were extended if necessary); • for compounds 1, 2 and 4, the pupil diameter of the left eye of the rabbits was measured at time points of 3 h and 4 h relative to administration, with the measurement repeated 3 times for each rabbit at each time point (measurement time points were extended if necessary).
Percentage change in pupil diameter (%) after administration=(pupil diameter after administration−pupil diameter before administration)/pupil diameter before administration×100%
The measurement result for each rabbit at each time point was represented by the average value of three measurements.

The next data set relates to rabbit eyes. The data set is described as follows: Eye irritation in rabbits (Test Example 2). In kind it is in vivo. To be noted: 2.11% solution.
Data set [2] relates to rabbit pupil. Nature of the data set: Rabbit pupil diameter change with other pilocarpine salts (Test Example 2). The data set is classed as in vivo. To be noted: for Percentage change in pupil diameter: average value ± SD; for miosis effect on rabbit pupils 3 h after administration: Table 2-1 solutions, equimolar pilocarpine. The source says:
Pilocarpine nitrate: with a molecular weight of 271.27 and a purity of 98%, from Nanjing Jiqun Pharmaceutical Technology Co., Ltd., prepared into a 1.38% solution using normal saline. Pilocarpine salicylate: with a molecular weight of 346.24 and a purity of 99.73%, from Nanjing Jiqun Pharmaceutical Technology Co., Ltd., prepared into a 1.76% solution using normal saline. Pilocarpine malate: with a molecular weight of 342.21 and a purity of 99.72%, from Nanjing Jiqun Pharmaceutical Technology Co., Ltd., prepared into a 1.74% solution using normal saline. Pilocarpine maleate: with a molecular weight of 324.19 and a purity of 99.76%, from Nanjing Jiqun Pharmaceutical Technology Co., Ltd., prepared into a 1.65% solution using normal saline. Pilocarpine fumarate: with a molecular weight of 324.19 and a purity of 99.74%, from Nanjing Jiqun Pharmaceutical Technology Co., Ltd., prepared into a 1.65% solution using normal saline. Pilocarpine lipoate: with a molecular weight of 414.58 and a purity of 99.56%, from Nanjing Jiqun Pharmaceutical Technology Co., Ltd., prepared into a 2.11% solution using normal saline. Note: The concentrations of the compounds were different, but they all contained an equimolar amount of pilocarpine. Each rabbit in each group was subjected to single eye drop administration in the left eye, with an administration volume of 100 μL. […] The entire measurement process was completed by the same person.

The subject of data set [3] is rabbit pupil. Nature of the data set: Rabbit pupil diameter change, pilocarpine p-toluate at different concentrations (Test Example 3). Particulars: 1.25%. The data set is classed as in vivo. The procedure: Under the condition of normal saline, the onset time, strength of effect, duration of effect, and irritation of 1.25% pilocarpine hydrochloride and different concentrations (0.88%, 1.75%, 3.50%) of pilocarpine p-toluate were tested.
as §1
Number of animals: 6 rabbits per compound.
Administration schedule: single administration.
• the pupil diameter of the left eye of the rabbits was measured at time points of −0.5 h (i.e., half an hour before administration), 5 min, 10 min, 15 min, 0.5 h, 3 h and 4 h relative to administration, with the measurement performed 3 times for each rabbit at each time point.

A short description of data set [4]: Stability tests on compound starting materials (HPLC related substances). In kind it is physicochemical. To be noted: starting material. The procedure: Samples: compound 1, compound 2 and pilocarpine hydrochloride starting material solid particles.
High-temperature test: 1 g of each of compound 1, compound 2 and pilocarpine hydrochloride starting materials were taken and placed in an open container inside a constant temperature device at 40° C.; samples were taken at time points of day 0 and day 5, and then tested according to the key stability examination items. The stability of the active pharmaceutical ingredient itself and the trend of changes in stability under the conditions of influencing factor tests were observed.
Strong light irradiation test: 1 g of each of compound 1, compound 2 and pilocarpine hydrochloride starting materials were taken and placed in an open container inside a light irradiation box, with the illumination set at 4500 lx±500 lx; samples were taken at time points of day 0 and day 5, and then tested according to the key stability examination items.
High-humidity test: 1 g of each of compound 1, compound 2 and pilocarpine hydrochloride starting materials was taken and placed in an open container inside a constant humidity closed container at 25° C. and with a relative humidity of 75%±5%; samples were taken at day 0 and day 5, and then tested according to the requirements of the key stability examination items.
According to the records in the European Pharmacopoeia (EP), the key related substances to be examined for pilocarpine include: impurity A isopilocarpine (Z-A), impurity B pilocarpic acid (Z-B), and impurity C isopilocarpic acid (Z-C). The samples taken at different time points from the above high-temperature test, strong light irradiation test and high-humidity test were separately tested using high-performance liquid chromatography to observe the trend of changes in stability under the conditions of the influencing factor tests.
The related substances were determined according to the high-performance liquid chromatography (General Chapter 0512, Chinese Pharmacopoeia, Volume IV, 2020 Edition).
Test sample solution: an appropriate amount of each test sample was precisely weighed, dissolved in water, and diluted to prepare a solution containing 1 mg of test sample per 1 mL.
Chromatographic conditions: octadecyl bonded silica gel was used as a filler [kromasil 100-5-C18 column (4.0 mm×[…]) or a chromatographic column with equivalent performance], 0.679 g/L tetrabutylammonium dihydrogen phosphate-methanol-acetonitrile (885:55:60) (adjusted to pH 7.7 with dilute aqueous ammonia) was used as mobile phase A, and acetonitrile-water (80:20) was used as mobile phase B; gradient elution was performed according to Table 6-1, with a column temperature of 30° C., a flow rate of 1.0 mL/min, a detection wavelength of 220 nm, and a sample injection volume of 20 μL.

Where [5] appears, read: Light-5 days (4500 lx), hydrochloride.
Where [6] appears, read: RH 75%-5 days, 25° C., hydrochloride.
Setting [7] is: drug concentration 1.65%, 0.5 h.

Turning to `CC[C@@H]1C(=O)OC[C@@H]1Cc1cncn1C` [Compound 4], in the data set with rabbit pupil [1], the “pupil constriction (miosis) effect at 3 h after administration” value was “still showed miosis effect”.
Consider `CC[C@@H]1C(=O)OC[C@@H]1Cc1cncn1C.O=C(O)CCCCC1CCSS1` [Pilocarpine lipoate], for which the “eye irritation on administration” value in the data set on rabbit eyes is “caused significant irritation and noticeable hyperemia”. Besides, the “Percentage change in pupil diameter” value with rabbit pupil [2] (drug concentration 2.11%, 0.5 h) is on record as −40.69 ± 2.68%; with rabbit pupil [2] (drug concentration 2.11%, 3 h) it was −3.11 ± 2.38%.
Take `CC[C@@H]1C(=O)OC[C@@H]1Cc1cncn1C` [Pilocarpine nitrate]: the “miosis effect on rabbit pupils 3 h after administration” value (“miosis effect on rabbit pupils 3 h” for short) in the data set with rabbit pupil [2] is listed as “substantially no miosis effect”.
`CCC1C(=O)OCC1Cc1cncn1C.O=C(O)c1ccccc1O` (stereo not shown) [Pilocarpine salicylate]: the “miosis effect on rabbit pupils 3 h” value in the data set on rabbit pupil [2] is “substantially no miosis effect”. The “Percentage change in pupil diameter” value was −30.12 ± 4.47% in the data set with rabbit pupil [2] (drug concentration 1.76%, 0.5 h) and 2.91 ± 1.07% in the data set on rabbit pupil [2] (drug concentration 1.76%, 3 h).
For the compound `CC[C@@H]1C(=O)OC[C@@H]1Cc1cncn1C` [pilocarpine hydrochloride, reference compound], the “Percentage change in pupil diameter” value is −7.81% in the data set on rabbit pupil [3] (5 min, average of 6 rabbits); −6.28% and −7.23% and −8.93% and −6.51% and −15.75% and −2.17% with rabbit pupil [3] (5 min, individual rabbit, hydrochloride); −29.35% in the data set on rabbit pupil [3] (10 min, average of 6 rabbits); −29.40% and −32.93% and −28.98% and −26.64% and −36.43% and −21.69% in the data set on rabbit pupil [3] (10 min, individual rabbit, hydrochloride); −35.33% in the data set on rabbit pupil [3] (15 min, average of 6 rabbits); −40.68% and −36.99% and −33.54% and −33.71% and −42.10% and −24.95% with rabbit pupil [3] (15 min, individual rabbit, hydrochloride). Moreover, the “Percentage change in pupil diameter” value was −34.59% with rabbit pupil [3] (0.5 h, average of 6 rabbits); −36.45% and −36.62% and −38.14% and −32.89% and −39.82% and −23.64% in the data set with rabbit pupil [3] (0.5 h, individual rabbit, hydrochloride); −3.13% with rabbit pupil [3] (3 h, average of 6 rabbits); 4.54% and −0.58% and 0.03% and −6.71% and −16.22% and 0.16% with rabbit pupil [3] (3 h, individual rabbit, hydrochloride); 0.25% in the data set on rabbit pupil [3] (4 h, average of 6 rabbits); −0.15% and −1.79% and 2.79% and 2.49% and −2.39% and 0.54% in the data set on rabbit pupil [3] (4 h, individual rabbit, hydrochloride). Further, the “(Z-C) impurity C isopilocarpic acid” value in data set [4] (40° C.-5 days) is reported as 0%; in data set [4] (Day 0), 0%; in data set [4] (Light-5 days (4500 lx)) it was 0%; in data set [4] (RH 75%-5 days, 25° C.), 0%. In addition, the Maximum single impurity in data set [4] (40° C.-5 days) came to 0%; in data set [4] (Day 0) it was 0%; in data set [4] (Light-5 days (4500 lx)), 0%; in data set [4] (setting [6]), 0.123%. In addition, the “(Z-A) impurity A isopilocarpine” value in data set [4] (40° C.-5 days, hydrochloride) came out at 0.248%; in data set [4] (Day 0, hydrochloride) it was 0.197%; in data set [4] (setting [5]), 0.248%; in data set [4] (setting [6]), 0.259%. The “(Z-B) impurity B pilocarpic acid” value in data set [4] (40° C.-5 days, hydrochloride) was found to be 0%; in data set [4] (Day 0) it was 0%; in data set [4] (setting [5]), 0%; in data set [4] (setting [6]), 1.641%. Also, the Total impurity in data set [4] (40° C.-5 days, hydrochloride) was determined as 0.248%; in data set [4] (Day 0, hydrochloride) it was 0.197%; in data set [4] (setting [5]), 0.248%; in data set [4] (setting [6]), 2.023%. Also, the “miosis effect on rabbit pupils 3 h” value with rabbit pupil [2] was “substantially no miosis effect”. For the same compound, in the data set on rabbit pupil [1], the “maximum percentage change in pupil diameter” value was “around 35%”. The “pupil constriction (miosis) effect at 3 h after administration” value in the data set with rabbit pupil [1] (hydrochloride) is given as “substantially no pupil constriction effect”.
Turning to Pilocarpine fumarate, in the data set on rabbit pupil [2], the “miosis effect on rabbit pupils 3 h” value is listed as “substantially no miosis effect”. Moreover, the “Percentage change in pupil diameter” value was −22.09 ± 6.44% in the data set with rabbit pupil [2] (setting [7]) and −1.00 ± 1.51% in the data set with rabbit pupil [2] (drug concentration 1.65%, 3 h).
On to Pilocarpine malate, for which, in the data set on rabbit pupil [2], the “miosis effect on rabbit pupils 3 h” value was “substantially no miosis effect”. The “Percentage change in pupil diameter” value in the data set with rabbit pupil [2] (drug concentration 1.74%, 0.5 h) is −27.71 ± 4.98%; in the data set on rabbit pupil [2] (drug concentration 1.74%, 3 h) it was 0.07 ± 2.49%.
On to Pilocarpine maleate, for which the “miosis effect on rabbit pupils 3 h” value in the data set on rabbit pupil [2] is “substantially no miosis effect”. Further, the “Percentage change in pupil diameter” value with rabbit pupil [2] (setting [7]) was −27.53 ± 4.42%; in the data set on rabbit pupil [2] (drug concentration 1.65%, 3 h), −1.52 ± 6.38%.
